Laboratory results: ChEMBL document CHEMBL5512685, “Discovery of a Promising CBP/p300 Degrader XYD129 for the Treatment of Acute Myeloid Leukemia” (J Med Chem, 2024)
Blank lines part the entries; values can stand above or below the molecule they belong to.

What was measured:
MV4-11 [1] = assay: Antiproliferative activity against human MV4-11 cells assessed as inhibition of cell growth incubated for 120 hrs by celltiter glo luminescence analysis; type: functional, cell-based; conditions: MV4-11, 120 h
CREB-binding protein = CREB-binding protein (Homo sapiens, UniProt Q92793); assay: Inhibition of C-terminal biotinylated tetra-acetylated histone peptide H4 binding to His6-fused human CBP bromodomain (R1081 to G1197 residues) incubated for 1 hrs by HTRF assay
[2] = molecular target: Histone acetyltransferase p300 (Homo sapiens, UniProt Q09472); assay: Inhibition of C-terminal biotinylated tetra-acetylated histone peptide H4 binding to His6-fused human p300 bromodomain (A1040 to G1161 residues) incubated for 1 hrs by HTRF assay
Protein cereblon = Protein cereblon (Homo sapiens, UniProt Q96SW2); assay: Inhibition of biotinylated thalidomide binding to CRBN (40 to 442 residues) (unknown origin) incubated for 1 hrs by HTRF assay
[3] = Antiproliferative activity against human MOLM16 cells assessed as inhibition of cell growth incubated for 72 hrs by celltiter glo luminescence analysis; type: functional, cell-based, MOLM-16; conditions: MOLM16, 72 h
KG-1 = assay: Antiproliferative activity against human KG-1 cells assessed as inhibition of cell growth incubated for 72 hrs by celltiter glo luminescence analysis; type: functional, cell-based; conditions: KG-1, 72 h
[4] = Cytotoxicity against human HL7702 cells assessed as inhibition of cell growth incubated for 72 hrs by celltiter glo luminescence analysis; type: toxicity, cell-based; conditions: HL7702 (L02) cells
MV4-11 [5] = assay: Potency index, ratio of Y08207 IC50 to test compound IC50 for antiproliferative activity against human MV4-11 cells assessed as inhibition of cell growth incubated for 120 hrs by celltiter glo luminescence analysis; type: functional
[6] = molecular target: T1, Protein cereblon/CREB-binding protein (Homo sapiens) (UniProt Q92793+Q96SW2); assay: PROTAC activity at CRBN/CBP in human MOLM16 cells assessed as induction of CBP degradation incubated for 24 hrs by Western blot analysis; type: cell-based; conditions: dose 0-1000 nM
[7] = molecular target: T2, Protein cereblon/Histone acetyltransferase p300 (Homo sapiens) (UniProt Q09472+Q96SW2); assay: PROTAC activity at CRBN/p300 in human MOLM16 cells assessed as induction of p300 degradation incubated for 24 hrs by Western blot analysis; type: cell-based; conditions: dose 0-1000 nM
[8] = molecular target: T1, Protein cereblon/CREB-binding protein (Homo sapiens); assay: PROTAC activity at CRBN/CBP in human MOLM16 cells assessed as induction of CBP degradation at 1000 nM incubated for 24 hrs by Western blot analysis relative to control; type: cell-based
[9] = molecular target: T2, Protein cereblon/Histone acetyltransferase p300 (Homo sapiens); assay: PROTAC activity at CRBN/p300 in human MOLM16 cells assessed as induction of p300 degradation at 1000 nM incubated for 24 hrs by Western blot analysis relative to control; type: cell-based

Compound: CC(=O)c1cc(C(=O)Nc2cc(CO)cc(-c3cnn(C)c3)c2F)c2cc(O)ccn12
IC50 (MV4-11 [1]): 6.37 µM | IC50 (CREB-binding protein): 0.006 µM | IC50 [2]: 0.007 µM | IC50 (Protein cereblon): > 100 µM | IC50 [3]: 13.5 µM | IC50 (KG-1): 11.6 µM | IC50 at 72 h [4]: 38.3 µM

IC50 (MV4-11 [1]): 17.8 µM
Compound: CC(=O)c1cc(C(=O)Nc2cc(CO)cc(-c3cnn(C)c3)c2F)c2cc(OCCCC(=O)NCCNc3ccc4c(c3)C(=O)N(C3CCC(=O)NC3=O)C4=O)ccn12 (stereo not drawn)

IC50 (MV4-11 [1]): 1.25 µM
Compound: CC(=O)c1cc(C(=O)Nc2cc(CO)cc(-c3cnn(C)c3)c2F)c2cc(OCCCCCCCC(=O)NCCCc3cccc4c3C(=O)N(C3CCC(=O)NC3=O)C4=O)ccn12 (stereo not drawn)

IC50 (MV4-11 [1]): 23 µM
Compound: CC(=O)c1cc(C(=O)Nc2cc(CO)cc(-c3cnn(C)c3)c2F)c2cc(OCC(=O)NCC#Cc3cccc4c3C(=O)N(C3CCC(=O)NC3=O)C4=O)ccn12 (stereo not drawn)

IC50 (MV4-11 [1]): > 20 µM
Compound: CC(=O)c1cc(C(=O)Nc2cc(CO)cc(-c3cnn(C)c3)c2F)c2cc(OCCCC(=O)NCCCCNc3cccc4c3C(=O)N(C3CCC(=O)NC3=O)C4=O)ccn12 (stereo not drawn)

IC50 (MV4-11 [1]): 21.2 µM
Compound: CC(=O)c1cc(C(=O)Nc2cc(CO)cc(-c3cnn(C)c3)c2F)c2cc(OCCCCC(=O)NCC#Cc3cccc4c3C(=O)N(C3CCC(=O)NC3=O)C4=O)ccn12 (stereo not drawn)

IC50 (MV4-11 [1]): > 20 µM
Compound: CC(=O)c1cc(C(=O)Nc2cc(CO)cc(-c3cnn(C)c3)c2F)c2cc(OCC(=O)NCCCCNc3ccc4c(c3)C(=O)N(C3CCC(=O)NC3=O)C4=O)ccn12 (stereo not drawn)

IC50 (MV4-11 [1]): 5.39 µM
Compound: CC(=O)c1cc(C(=O)Nc2cc(CO)cc(-c3cnn(C)c3)c2F)c2cc(OC3CCN(C(=O)CCOCCOCCOCCNc4cccc5c4C(=O)N(C4CCC(=O)NC4=O)C5=O)CC3)ccn12 (stereo not drawn)

IC50 (MV4-11 [1]): 0.46 µM | IC50 (CREB-binding protein): 0.068 µM | IC50 [2]: 0.046 µM | IC50 (Protein cereblon): 0.79 µM
Compound: CC(=O)c1cc(C(=O)Nc2cc(CO)cc(-c3cnn(C)c3)c2F)c2cc(OCCCCCC(=O)NCCCc3cccc4c3C(=O)N(C3CCC(=O)NC3=O)C4=O)ccn12 (stereo not drawn)
IC50 [3]: 0.054 µM | IC50 (KG-1): 4.77 µM | IC50 at 72 h [4]: > 100 µM | Ratio IC50 (MV4-11 [5]): ~8

IC50 (MV4-11 [1]): 0.75 µM | IC50 (CREB-binding protein): 0.02 µM | IC50 [2]: 0.022 µM | IC50 (Protein cereblon): 0.47 µM
Compound: CC(=O)c1cc(C(=O)Nc2cc(CO)cc(-c3cnn(C)c3)c2F)c2cc(OCCCCC(=O)NCCCc3cccc4c3C(=O)N(C3CCC(=O)NC3=O)C4=O)ccn12 (stereo not drawn)
Ratio IC50 (MV4-11 [5]): ~8

IC50 (MV4-11 [1]): 3.93 µM
Compound: CC(=O)c1cc(C(=O)Nc2cc(CO)cc(-c3cnn(C)c3)c2F)c2cc(OCCCCCCC(=O)NCC#Cc3cccc4c3C(=O)N(C3CCC(=O)NC3=O)C4=O)ccn12 (stereo not drawn)
Ratio IC50 (MV4-11 [5]): ~2

IC50 (MV4-11 [1]): > 20 µM
Compound: CC(=O)c1cc(C(=O)Nc2cc(CO)cc(-c3cnn(C)c3)c2F)c2cc(OCCCC(=O)NCCCCCCCCNc3cccc4c3C(=O)N(C3CCC(=O)NC3=O)C4=O)ccn12 (stereo not drawn)

IC50 (MV4-11 [1]): 7.51 µM
Compound: CC(=O)c1cc(C(=O)Nc2cc(CO)cc(-c3cnn(C)c3)c2F)c2cc(OCC(=O)NCCCc3cccc4c3C(=O)N(C3CCC(=O)NC3=O)C4=O)ccn12 (stereo not drawn)

IC50 (MV4-11 [1]): > 20 µM
Compound: CC(=O)c1cc(C(=O)Nc2cc(CO)cc(-c3cnn(C)c3)c2F)c2cc(OCCCC(=O)NCCCCCCNc3cccc4c3C(=O)N(C3CCC(=O)NC3=O)C4=O)ccn12 (stereo not drawn)

IC50 (MV4-11 [1]): 23.2 µM
Compound: CC(=O)c1cc(C(=O)Nc2cc(CO)cc(-c3cnn(C)c3)c2F)c2cc(OCCCC(=O)NCC#Cc3cccc4c3C(=O)N(C3CCC(=O)NC3=O)C4=O)ccn12 (stereo not drawn)

IC50 (MV4-11 [1]): 1.03 µM | IC50 (CREB-binding protein): 0.036 µM | IC50 [2]: 0.051 µM | IC50 (Protein cereblon): 7 µM
Compound: CC(=O)c1cc(C(=O)Nc2cc(CO)cc(-c3cnn(C)c3)c2F)c2cc(OCCCCCCC(=O)NCCCc3cccc4c3C(=O)N(C3CCC(=O)NC3=O)C4=O)ccn12 (stereo not drawn)

IC50 (MV4-11 [1]): > 20 µM
Compound: CC(=O)c1cc(C(=O)Nc2cc(CO)cc(-c3cnn(C)c3)c2F)c2cc(OCC(=O)NCCNc3cccc4c3C(=O)N(C3CCC(=O)NC3=O)C4=O)ccn12 (stereo not drawn)

IC50 (MV4-11 [1]): 0.42 µM | IC50 (CREB-binding protein): 0.073 µM | IC50 [2]: 0.077 µM | IC50 (Protein cereblon): 1.1 µM | Activity [6]: Dose-Dependent Effect | Activity [7]: Dose-Dependent Effect | Activity [8]: 100% | Activity [9]: 100%
Compound: CC(=O)c1cc(C(=O)Nc2cc(CO)cc(-c3cnn(C)c3)c2F)c2cc(OCCCC(=O)NCCNc3cccc4c3C(=O)N(C3CCC(=O)NC3=O)C4=O)ccn12 (stereo not drawn)
IC50 [3]: 0.021 µM | IC50 (KG-1): 3.95 µM | IC50 at 72 h [4]: > 100 µM

IC50 (MV4-11 [1]): 1.48 µM
Compound: CC(=O)c1cc(C(=O)Nc2cc(CO)cc(-c3cnn(C)c3)c2F)c2cc(OCCCC(=O)NCCCc3cccc4c3C(=O)N(C3CCC(=O)NC3=O)C4=O)ccn12 (stereo not drawn)

IC50 (MV4-11 [1]): 0.014 µM | IC50 (Protein cereblon): > 100 µM
Compound: CO[C@H]1CC[C@H](n2c([C@@H]3CCCC(=O)N3c3ccc(F)c(F)c3)nc3cc(-c4c(C)noc4C)ccc32)CC1 [INOBRODIB]
IC50 [3]: 0.37 µM | IC50 (KG-1): 17 µM | IC50 at 72 h [4]: 20 µM

IC50 (MV4-11 [1]): 8.03 µM
Compound: CC(=O)c1cc(C(=O)Nc2cc(CO)cc(-c3cnn(C)c3)c2F)c2cc(OC3CCN(C(=O)CCOCCNc4cccc5c4C(=O)N(C4CCC(=O)NC4=O)C5=O)CC3)ccn12 (stereo not drawn)

IC50 (MV4-11 [1]): 11.1 µM
Compound: CC(=O)c1cc(C(=O)Nc2cc(CO)cc(-c3cnn(C)c3)c2F)c2cc(OC3CCN(C(=O)CCOCCOCCNc4cccc5c4C(=O)N(C4CCC(=O)NC4=O)C5=O)CC3)ccn12 (stereo not drawn)

IC50 (MV4-11 [1]): 1.06 µM
Compound: CC(=O)c1cc(C(=O)Nc2cc(CO)cc(-c3cnn(C)c3)c2F)c2cc(OCC(=O)NCCCNc3cccc4c3C(=O)N(C3CCC(=O)NC3=O)C4=O)ccn12 (stereo not drawn)
Ratio IC50 (MV4-11 [5]): 6

IC50 (MV4-11 [1]): 4.89 µM
Compound: CC(=O)c1cc(C(=O)Nc2cc(CO)cc(-c3cnn(C)c3)c2F)c2cc(OC3CCN(C(=O)CCOCCOCCOCCOCCNc4cccc5c4C(=O)N(C4CCC(=O)NC4=O)C5=O)CC3)ccn12 (stereo not drawn)

IC50 (MV4-11 [1]): 13 µM
Compound: CC(=O)c1cc(C(=O)Nc2cc(CO)cc(-c3cnn(C)c3)c2F)c2cc(OCCCCCC(=O)NCC#Cc3cccc4c3C(=O)N(C3CCC(=O)NC3=O)C4=O)ccn12 (stereo not drawn)

IC50 (MV4-11 [1]): 3.25 µM
Compound: CC(=O)c1cc(C(=O)Nc2cc(CO)cc(-c3cnn(C)c3)c2F)c2cc(OCCCCCCCC(=O)NCC#Cc3cccc4c3C(=O)N(C3CCC(=O)NC3=O)C4=O)ccn12 (stereo not drawn)
Ratio IC50 (MV4-11 [5]): ~2
